# Patent US5807700A, “Method of screening anti-amebic agents with an E. coli mutant having a deleted adhE gene complemented by the E. histolytica EhADH2 gene” (Washington University, priority 1995, dated 1998)
# T1: purified recombinant EhADH2 (Entamoeba histolytica, UniProt Q24803)
# T1 construct: a NcoI site at the initiating ATG codon using PCR with the EhADH2 cDNA as the template; made in house; host or cells: E. coli SHH31(DE3) carrying pET/EhADH2
# T1 sequence (Q24803 1-870): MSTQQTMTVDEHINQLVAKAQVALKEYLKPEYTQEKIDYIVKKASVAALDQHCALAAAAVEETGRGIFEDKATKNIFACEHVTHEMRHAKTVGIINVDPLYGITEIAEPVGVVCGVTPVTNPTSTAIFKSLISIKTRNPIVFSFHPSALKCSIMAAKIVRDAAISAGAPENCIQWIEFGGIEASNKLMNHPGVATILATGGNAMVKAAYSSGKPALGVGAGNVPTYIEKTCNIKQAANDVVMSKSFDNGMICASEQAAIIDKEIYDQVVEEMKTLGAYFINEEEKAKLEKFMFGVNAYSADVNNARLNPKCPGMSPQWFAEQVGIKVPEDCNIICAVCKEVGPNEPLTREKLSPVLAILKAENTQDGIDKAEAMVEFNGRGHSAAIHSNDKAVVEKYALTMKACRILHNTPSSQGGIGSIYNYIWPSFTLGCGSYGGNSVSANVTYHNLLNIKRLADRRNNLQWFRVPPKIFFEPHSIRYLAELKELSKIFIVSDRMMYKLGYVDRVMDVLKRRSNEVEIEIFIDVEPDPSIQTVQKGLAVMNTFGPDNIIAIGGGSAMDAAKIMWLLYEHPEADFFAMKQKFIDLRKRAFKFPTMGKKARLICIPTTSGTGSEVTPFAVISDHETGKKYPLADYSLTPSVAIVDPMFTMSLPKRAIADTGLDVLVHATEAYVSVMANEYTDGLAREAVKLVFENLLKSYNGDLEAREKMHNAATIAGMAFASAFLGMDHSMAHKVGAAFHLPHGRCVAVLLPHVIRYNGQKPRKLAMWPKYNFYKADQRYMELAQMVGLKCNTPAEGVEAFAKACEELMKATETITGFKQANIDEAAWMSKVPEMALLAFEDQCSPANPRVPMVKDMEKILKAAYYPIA
# T2: recombinant EhADH2 (Entamoeba histolytica, UniProt Q24803)
# T2 construct: a NcoI site at the initiating ATG codon using PCR with the EhADH2 cDNA as the template; made in house; host or cells: E. coli SHH31(DE3) carrying pET/EhADH2
# T2 sequence (Q24803 1-870): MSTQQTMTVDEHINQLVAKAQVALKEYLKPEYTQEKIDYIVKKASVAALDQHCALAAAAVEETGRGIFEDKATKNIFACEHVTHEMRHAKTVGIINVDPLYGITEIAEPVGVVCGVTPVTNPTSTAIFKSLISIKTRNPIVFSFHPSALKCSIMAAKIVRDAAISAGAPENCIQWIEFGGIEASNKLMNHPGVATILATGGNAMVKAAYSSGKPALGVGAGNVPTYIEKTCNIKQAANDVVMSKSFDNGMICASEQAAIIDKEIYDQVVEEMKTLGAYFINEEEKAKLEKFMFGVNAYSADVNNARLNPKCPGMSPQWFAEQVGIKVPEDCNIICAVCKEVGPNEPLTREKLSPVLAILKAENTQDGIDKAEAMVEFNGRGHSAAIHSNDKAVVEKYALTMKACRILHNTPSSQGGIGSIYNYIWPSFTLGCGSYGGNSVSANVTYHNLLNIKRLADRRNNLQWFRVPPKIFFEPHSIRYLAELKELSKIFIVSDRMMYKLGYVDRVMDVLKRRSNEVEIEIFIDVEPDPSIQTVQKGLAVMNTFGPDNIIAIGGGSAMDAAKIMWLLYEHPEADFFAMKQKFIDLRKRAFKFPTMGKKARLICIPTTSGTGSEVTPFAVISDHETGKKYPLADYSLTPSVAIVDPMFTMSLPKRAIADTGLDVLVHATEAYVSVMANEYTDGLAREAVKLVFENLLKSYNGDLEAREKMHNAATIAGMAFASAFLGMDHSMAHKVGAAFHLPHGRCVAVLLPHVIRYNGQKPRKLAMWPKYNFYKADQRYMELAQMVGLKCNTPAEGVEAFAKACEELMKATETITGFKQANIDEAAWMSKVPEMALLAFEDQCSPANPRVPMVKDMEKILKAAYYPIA
# T3: EhADH1 (Entamoeba histolytica, UniProt P35630)
# T3 sequence (P35630 1-366): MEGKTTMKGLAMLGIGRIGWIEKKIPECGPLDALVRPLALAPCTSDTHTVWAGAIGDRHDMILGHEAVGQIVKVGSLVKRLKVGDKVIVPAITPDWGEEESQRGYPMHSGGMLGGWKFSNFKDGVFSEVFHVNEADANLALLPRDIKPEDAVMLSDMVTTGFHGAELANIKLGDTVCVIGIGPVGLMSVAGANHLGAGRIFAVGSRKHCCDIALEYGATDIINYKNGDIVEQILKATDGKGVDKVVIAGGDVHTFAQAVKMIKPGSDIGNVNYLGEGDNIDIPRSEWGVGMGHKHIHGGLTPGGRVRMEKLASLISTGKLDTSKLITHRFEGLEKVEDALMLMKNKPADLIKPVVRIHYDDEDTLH
# Key:
# [1] = molecular target: T1, purified recombinant EhADH2; assay: Substrate specificity and kinetics, ADH activity of purified recombinant EhADH2; format: biochemical; settings: for substrate for the enzyme (ADH reactivity): purified recombinant EhADH2, 1 mM NAD+, pH 9.5
# Procedure: (§1) ADH activity of the supernatant fraction from bacterial lysates, or of the purified recombinant enzyme was assayed spectrophotometrically by measuring the decrease in absorbance at 340 nm following the oxidation of NADH to […] (21). The cuvette contained 6 mM DTT, 5 mM MgSO4, 0.1 mM Fe(NH4)2 (SO4)2, 0.4 mM NADH, 10 mM acetaldehyde, and 0.1 M MOPS-KOH buffer (pH 7.5) to give a final volume of 1.0 ml. MOPS=3-[N-Morpholino]propanesulfonic acid; DTT=dithiothreitol.
# (§2) To study the substrate specificity and kinetics of the purified recombinant EhADH2 molecule, the spectrophotometric assay of ADH activity was again utilized, with 5 μg of the purified enzyme in the presence of 50 mM glycine/NaOH buffer (pH 9.5) containing 6 mM DTT, 5 mM MgSO4, 0.1 mM Fe(NH4)2 (SO4)2, 1 mM […], and varying concentrations of the substrate alcohol to be tested (11). The Km and Kcat values expressed were determined using non-linear regression to fit the values for initial velocity and substrate concentration to the Michaelis-Menten equation.
# recombinant EhADH2 = molecular target: T2, recombinant EhADH2; assay: Inhibition of purified recombinant EhADH2 enzyme (Ki); format: biochemical; settings: read-out: Ki for the recombinant EhADH2 molecule
# Procedure: as §1, §2
# [2] = test system: E. histolytica HM1:IMSS trophozoites; assay: Inhibition of E. histolytica growth (viable trophozoite count); format: cell-based, Entamoeba histolytica; parameters: effect on E. histolytica growth: dose or concentration left out as unconfirmed
# Procedure: Anaerobic liquid cultures were grown without agitation in tubes inside the anaerobic jars at 37° C. Solid media contained 1.5% Bacto Agar (Difco, Detroit, Mich.). Trophozoites of E. histolytica HM1:IMSS were cultured axenically in BYI-S-33 medium by conventional procedure as previously described (17).
# (§3) E. coli SHH31 transformed with pMON/EhADH2 were inoculated into M9 minimal liquid medium and grown under anaerobic or aerobic conditions in the presence or absence of pyrazole (Sigma Chemical Co., St. Louis, Mo.) at concentrations of 5 to 20 mM. Growth was monitored by determining the optical density (O.D.) at 600 nm at 24 and 48 hrs post-inoculation. […] Viable trophozoites were counted using a hemacytometer at days 2 and 4, and the number of trophozoites/ml recorded.
# [3] = test system: E. coli SHH31/pMON/EhADH2; assay: EhADH2 inhibition assay: growth of E. coli SHH31 transformed with pMON/EhADH2 (O.D. at 600 nm); format: cell-based; settings: M9 minimal liquid medium, pyrazole 5 to 20 mM, O.D. 600 nm at 24 and 48 hrs
# Procedure: E. coli and E. histolytica strains and culture conditions. Conventional E. coli strains, DH5α, BL21(DE3), and SHH31 (Δadh zch::Tn10 fadR met tyrT) (15) were used for transformation and the expression of recombinant EhADH2. Aerobic cultures were grown in LB medium with agitation at 37° C. For anaerobic growth, bacteria were incubated in anaerobic jars, BBL®GasPak® System under an H2 -CO2 atmosphere generated by BBL GAS PAK Anaerobic System Envelopes (Becton Dickinson, Cockeysville, Md.).
# Anaerobic indicator strips were used to ensure anaerobic conditions. M9 minimal medium used for anaerobic growth was supplemented with glucose at 0.25%, thiamine (1 mM), CaCl2 (0.1 mM), MgSO4 (1.2 mM), and the following trace minerals: Fe(50 μM), Se(5 μM), Mo(5 μM), Mn(5 μM) (16).
# Anaerobic liquid cultures were grown without agitation in tubes inside the anaerobic jars at 37° C. Solid media contained 1.5% Bacto Agar (Difco, Detroit, Mich.). […]
# as §3
# EhADH1 = molecular target: T3, EhADH1; settings: NADP+-dependent EhADH1; cited from earlier work
# E. coli AdhE enzyme = E. coli AdhE enzyme (Escherichia coli, UniProt P0A9Q7); settings: read-out: Km for the E. coli AdhE enzyme; cited from earlier work
# native EhADH2 enzyme = molecular target: T4, native EhADH2 enzyme (Entamoeba histolytica, UniProt Q24803); settings: read-out: Km reported for native EhADH2 enzyme; cited from earlier work
# T4 construct: essentially identical to that reported for the native EhADH2 enzyme (80 mM) (11)
# [4] = substrate: CCCO; assay: Substrate specificity and kinetics, ADH activity of purified recombinant EhADH2; format: biochemical, Entamoeba histolytica; settings: other: reaction 1-propanol + NAD+
# Procedure: (§5) To study the substrate specificity and kinetics of the purified recombinant EhADH2 molecule, the spectrophotometric assay of ADH activity was again utilized, with 5 μg of the purified enzyme in the presence of 50 mM glycine/NaOH buffer (pH 9.5) containing 6 mM DTT, 5 mM MgSO4, 0.1 mM Fe(NH4)2 (SO4)2, 1 mM AND^+, and varying concentrations of the substrate alcohol to be tested (11). The Km and Kcat values expressed were determined using non-linear regression to fit the values for initial velocity and substrate concentration to the Michaelis-Menten equation.
# [5] = substrate: NC(=O)C1=CN([C@@H]2O[C@H](COP(=O)(O)OP(=O)(O)OC[C@H]3O[C@@H](n4cnc5c(N)ncnc54)[C@H](O)[C@@H]3O)[C@@H](O)[C@H]2O)C=CC1; assay: as above; format: biochemical, Entamoeba histolytica; settings: other: reaction acetaldehyde + NADH
# Procedure: as §5
# [6] = substrate: CC=O; assay: as above; format: biochemical, Entamoeba histolytica; settings: other: reaction acetaldehyde + NADH
# Procedure: as §5
# [7] = substrate: CCO; assay: as above; format: biochemical, Entamoeba histolytica; settings: other: reaction ethanol + NAD+
# Procedure: as §5
# [8] = substrate: CC(=O)SCCNC(=O)CCNC(=O)[C@H](O)C(C)(C)COP(=O)(O)OP(=O)(O)OC[C@H]1O[C@@H](n2cnc3c(N)ncnc32)[C@H](O)[C@@H]1OP(=O)(O)O; assay: ALDH activity kinetics of purified recombinant EhADH2; format: biochemical, Entamoeba histolytica; settings: other: reaction acetyl-CoA + NADH; pH 9.5
# Procedure: (§4) ALDH activity was assayed using the same method, with the substitution of 0.1 mM acetyl-CoA for acetaldehyde in the reaction buffer. A unit of enzyme activity is defined as the micromoles of product formed per min of incubation at room temperature.
# as §2
# [9] = substrate: NC(=O)C1=CN([C@@H]2O[C@H](COP(=O)(O)OP(=O)(O)OC[C@H]3O[C@@H](n4cnc5c(N)ncnc54)[C@H](O)[C@@H]3O)[C@@H](O)[C@H]2O)C=CC1; assay: as above; format: biochemical, Entamoeba histolytica; settings: other: reaction acetyl-CoA + NADH; pH 9.5
# Procedure: as §4, §2
# Sequence of E. coli AdhE enzyme (P0A9Q7 whole entry): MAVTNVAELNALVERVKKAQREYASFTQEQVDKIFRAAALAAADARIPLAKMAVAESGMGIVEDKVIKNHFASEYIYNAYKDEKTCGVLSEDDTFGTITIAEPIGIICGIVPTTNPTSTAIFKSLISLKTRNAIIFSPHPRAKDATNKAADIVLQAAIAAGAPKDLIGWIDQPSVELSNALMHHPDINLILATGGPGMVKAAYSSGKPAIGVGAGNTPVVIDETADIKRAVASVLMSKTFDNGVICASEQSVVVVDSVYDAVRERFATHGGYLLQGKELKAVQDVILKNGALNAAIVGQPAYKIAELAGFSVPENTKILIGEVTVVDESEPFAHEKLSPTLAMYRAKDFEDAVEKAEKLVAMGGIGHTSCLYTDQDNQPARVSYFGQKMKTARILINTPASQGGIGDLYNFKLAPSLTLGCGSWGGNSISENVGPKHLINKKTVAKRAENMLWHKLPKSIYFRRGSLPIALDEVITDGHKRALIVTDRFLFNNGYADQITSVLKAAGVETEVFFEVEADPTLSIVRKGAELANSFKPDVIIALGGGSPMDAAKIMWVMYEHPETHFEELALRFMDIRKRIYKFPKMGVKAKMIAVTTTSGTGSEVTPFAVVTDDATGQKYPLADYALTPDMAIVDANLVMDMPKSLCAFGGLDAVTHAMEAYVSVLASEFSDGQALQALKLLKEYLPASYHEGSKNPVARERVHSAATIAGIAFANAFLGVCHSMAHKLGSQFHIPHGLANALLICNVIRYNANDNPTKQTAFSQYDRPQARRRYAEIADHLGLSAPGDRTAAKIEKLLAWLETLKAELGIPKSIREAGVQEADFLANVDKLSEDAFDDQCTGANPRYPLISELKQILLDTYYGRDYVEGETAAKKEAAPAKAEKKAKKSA
molecule,measurement,setting,value
CO [methanol],substrate for the enzyme (ADH reactivity),[1],neither retinol nor methanol were substrates
CCC(C)O (stereo not drawn) [sec-butanol],substrate for the enzyme (ADH reactivity),[1],No reactivity
CC(C)O [isopropanol],substrate for the enzyme (ADH reactivity),[1],No reactivity
c1cn[nH]c1 [pyrazole],Ki,recombinant EhADH2,7.24 mM
same,effect on E. histolytica growth,[2],no effect
same,inhibition of growth of E. histolytica trophozoites,"[2]; concentration of 20 to 40 mM, viable trophozoites at days 2 and 4",significantly inhibited amebic growth
same,effect on growth under aerobic conditions,[3]; aerobic,much reduced effect
same,inhibition of anaerobic growth of SHH31/pMON/EhADH2,[3]; anaerobic,in a dose-dependent manner significantly inhibited
same,Ki,EhADH1,0.0014 mM
CCO [ethanol],Km,E. coli AdhE enzyme,30000 µM
same,Km,native EhADH2 enzyme,80000 µM
CC1=C(/C=C/C(C)=C/C=C/C(C)=C/CO)C(C)(C)CCC1 [retinol],substrate for the enzyme (ADH reactivity),[1],neither retinol nor methanol were substrates
NC(=O)c1ccc[n+]([C@@H]2O[C@H](COP(=O)(O)OP(=O)(O)OC[C@H]3O[C@@H](n4cnc5c(N)ncnc54)[C@H](O)[C@@H]3O)[C@@H](O)[C@H]2O)c1 [NAD^+],Km,[1]; reaction 1-propanol + NAD+,250 µM
same,Km,[1]; reaction ethanol + NAD+,550 µM
CC=O [acetaldehyde],Km,native EhADH2 enzyme,150 µM
"purified recombinant EhADH2 (Entamoeba histolytica HM-1:IMSS) (protein, a NcoI site at the initiating ATG codon using PCR with the EhADH2 cDNA as the template; made in house; host or cells: E. coli SHH31(DE3) carrying pET/EhADH2) MSTQQTMTVDEHINQLVAKAQVALKEYLKPEYTQEKIDYIVKKASVAALDQHCALAAAAVEETGRGIFEDKATKNIFACEHVTHEMRHAKTVGIINVDPLYGITEIAEPVGVVCGVTPVTNPTSTAIFKSLISIKTRNPIVFSFHPSALKCSIMAAKIVRDAAISAGAPENCIQWIEFGGIEASNKLMNHPGVATILATGGNAMVKAAYSSGKPALGVGAGNVPTYIEKTCNIKQAANDVVMSKSFDNGMICASEQAAIIDKEIYDQVVEEMKTLGAYFINEEEKAKLEKFMFGVNAYSADVNNARLNPKCPGMSPQWFAEQVGIKVPEDCNIICAVCKEVGPNEPLTREKLSPVLAILKAENTQDGIDKAEAMVEFNGRGHSAAIHSNDKAVVEKYALTMKACRILHNTPSSQGGIGSIYNYIWPSFTLGCGSYGGNSVSANVTYHNLLNIKRLADRRNNLQWFRVPPKIFFEPHSIRYLAELKELSKIFIVSDRMMYKLGYVDRVMDVLKRRSNEVEIEIFIDVEPDPSIQTVQKGLAVMNTFGPDNIIAIGGGSAMDAAKIMWLLYEHPEADFFAMKQKFIDLRKRAFKFPTMGKKARLICIPTTSGTGSEVTPFAVISDHETGKKYPLADYSLTPSVAIVDPMFTMSLPKRAIADTGLDVLVHATEAYVSVMANEYTDGLAREAVKLVFENLLKSYNGDLEAREKMHNAATIAGMAFASAFLGMDHSMAHKVGAAFHLPHGRCVAVLLPHVIRYNGQKPRKLAMWPKYNFYKADQRYMELAQMVGLKCNTPAEGVEAFAKACEELMKATETITGFKQANIDEAAWMSKVPEMALLAFEDQCSPANPRVPMVKDMEKILKAAYYPIA",Km,[4],40000 µM
same,Km,[5],280 µM
same,Km,[6],2900 µM
same,Km,[7],85000 µM
same,Km,[8],40 µM
same,Km,[9],170 µM
